# Reference: patent US8394986B2, “Phenoxiacetic acid derivatives” (AstraZeneca AB, priority 2003, dated 2013)
# Where a name gives a salt, the structure may show the parent alone.
# Biological target: T1, rhCRTh2 (Homo sapiens, UniProt Q9Y5Y4)
# T1 construct: expressed in transfected cells; membranes prepared
# T1 sequence (Q9Y5Y4 1-395): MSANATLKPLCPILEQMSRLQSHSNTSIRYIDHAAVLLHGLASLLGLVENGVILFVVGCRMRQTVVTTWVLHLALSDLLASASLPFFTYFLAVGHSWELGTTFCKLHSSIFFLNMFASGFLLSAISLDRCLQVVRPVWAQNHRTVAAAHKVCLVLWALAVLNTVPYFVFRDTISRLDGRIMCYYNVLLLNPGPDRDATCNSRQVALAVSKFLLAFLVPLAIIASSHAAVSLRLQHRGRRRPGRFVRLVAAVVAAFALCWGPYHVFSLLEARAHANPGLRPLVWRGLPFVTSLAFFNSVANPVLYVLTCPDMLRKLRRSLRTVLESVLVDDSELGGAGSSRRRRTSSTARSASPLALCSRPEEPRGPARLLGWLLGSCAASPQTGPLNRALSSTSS
# Assay: Ligand binding assay ([3H]PGD2 SPA, HEK cell membranes)
# Conditions: [3H]PGD2 displacement, membranes of HEK cells expressing rhCRTh2/Ga16, SPA beads, 2 hours room temperature
# Experimental: [^3H]PGD2 was purchased from Perkin Elmer Life Sciences with a specific activity of 100-210 Ci/mmol All other chemicals were of analytical grade.
# HEK cells expressing rhCRTh2/Ga16 were routinely maintained in DMEM containing 10% Foetal Bovine Serum (HyClone), 1 mg/ml geneticin, 2 mM L-glutamine and 1% non-essential amino acids. For the preparation of membranes, the adherent transfected HEKcells were grown to confluence in two layer tissue culture factories (Fisher, catalogue number TKT-170-070E). Maximal levels of receptor expression were induced by addition of […] sodium butyrate for the last 18 hours of culture. The adherent cells were washed once with phosphate buffered saline (PBS, 50 ml per cell factory) and detached by the addition of 50 ml per cell factory of ice-cold membrane homogenisation buffer [20 mM HEPES (pH 7.4), 0.1 mM dithiothreitol, 1 mM EDTA, 0.1 mM phenyl methyl sulphonyl fluoride and 100 μg/ml bacitracin]. […] The final pellet was re-suspended in 4 ml of membrane homogenisation buffer per cell factory used and the protein content determined Membranes were stored at −80° C. in suitable aliquots.
# All assays were performed in Corning clear bottomed, white 96-well NBS plates (Fisher). […] (The optimum coating concentrations were determined for each batch of membranes) The beads were pelleted by centrifugation (800×g for 7 minutes at 4° C.), washed once with assay buffer (50 mM HEPES pH 7.4 containing 5 mM magnesium chloride) and finally re-suspended in assay buffer at a bead concentration of 10 mg/ml.
# Each assay contained 20 μl of 6.25 nM [^3H]PGD2, 20 μl membrane saturated SPA beads both in assay buffer and 10 μl of compound solution or 13,14-dihydro-15-keto prostaglandin D2 (DK-PGD2, for determination of non-specific binding, Cayman chemical company). […] The assay plate was incubated at room temperature for 2 hours and counted on a Wallac Microbeta liquid scintillation counter (1 minute per well).
row,IC50,Structure (SMILES)
1,10 nM,"CCS(=O)(=O)c1ccc(Oc2cc(Cl)ccc2OCC(=O)O)cc1 [Example 5, [4-Chloro-2-[4-(ethylsulfonyl)phenoxy]phenoxy]acetic acid, sodium salt]"
2,10 nM,"CCS(=O)(=O)c1ccc(Cc2cc(C(F)(F)F)ccc2OCC(=O)O)cc1 [Example 4, [2-[4-(Ethylsulfonyl)benzyl]-4-(trifluoromethyl)phenoxy]acetic acid]"
3,1 nM,"CCS(=O)(=O)c1ccc(Oc2cc(F)ccc2OCC(=O)O)c(Cl)c1 [Example 43, {2-[2-Chloro-4-(ethylsulfonyl)phenoxy]-4-fluorophenoxy}acetic acid]"
